Reference: patent US12059478B2, “Gene therapy” (Ospedale San Raffaele S.r.l., priority 2016, dated 2024)

Experiments:
ATR [1] = molecular target: T1, ATR (Mus musculus, UniProt Q9JKK8); conditions: 3T3TopBP1-ER cells; cited from earlier work
T1 construct: endogenous in cells; host or cells: 3T3TopBP1-ER cells

[2] = tested on: p53 signalling (p21 mRNA) in human CD34+ HSPC; experiment: p21 mRNA induction (p53 signalling) after vector transduction, Taqman; format: cell-based; conditions: for LV-induced p21 mRNA in presence of the inhibitor: CB-CD34+, LV MOI 100, inhibitor 10 μM, 48 h
From the text: (§1) Human CD34+ hematopoietic stem and progenitor cells (HSPC) and CD4+ T cells were isolated through magnetic bead selection according to the manufacturer's instructions (Milteny) from umbilical cord blood (CB) collected upon informed consent from healthy volunteers according to the Institutional Ethical Committee approved protocol (TIGET01). Otherwise, CB and bone marrow (BM)-derived CD34+ were directly purchased from Lonza. Cells were purified and cultured as described in Petrillo et al. (Petrillo, C. et al. (2015) Molecular Therapy 23: 352-362). K562 and Hela cell lines were plated in complete Iscove's modified Dulbecco's medium (Euroclone). HL-60 cells were grown and transduced in complete RPMI. HCT-116 cells were grown and transduced in complete Dulbecco's Modified Eagle Medium (DMEM). Murine Lin− cells were isolated through magnetic bead selection according to the manufacturer's instructions (Miltenyi) from bone marrow of euthanised C57/BL6 mice. For the clinical standard double-hit transduction protocol, cells were washed 16 h after the first vector exposure, left to recover in cytokine-supplemented medium for 10 h and re-exposed to the second hit of vector for another 16 h before transplantation. All animal procedures were performed according to protocols approved by the Animal Care and Use Committee of the Ospedale San Raffaele (IACUC 611) and according to Italian law. All cells were transduced at the indicated multiplicity of infection (MOI) as calculated by titration of vector stocks on 293T cells for Lentiviral and Retroviral vectors. Transductions with the AAV6 vectors were performed at an MOI of 10000 as calculated by titration of the vector preparation expressed in vector genome per mL (vg/mL). All the transductions were performed at 1×10^6 cells/mL concentration. In the experiment with anti-retroviral inhibitors, the drugs were added together with the vector. Raltegravir and 3TC were used at 10 μM, and AZT at 25 μM. In the ATM inhibition experiment, single hit of the ATM inhibitor KU55933 (Selleck Chemicals) was added to the cells 2 hours before the transduction at 10 μM concentration. All cells were maintained in a 5% CO2 humidified atmosphere at 37° C.
Total RNA was extracted with the RNeasy Plus Micro kit or RNeasy Micro Kit (Qiagen) and Reverse transcription was performed using SuperScriptVILO cDNA Synthesis Kit (ThermoFisher Scientific) according to the manufacturers' instructions. Gene expression analysis was performed by Taqman probe (Thermo Fisher, Table 6) as described in Petrillo et al. (Petrillo, C. et al. (2015) Molecular Therapy 23: 352-362), human HPRT1 or murine Hprt were used to normalise the total quantity of human or mouse cDNA input respectively.

human CB-CD34+ cells [3] = experiment: Cell proliferation dye assay; format: cell-based; conditions: LV MOI 100, 2 days
human CD34+ HSPC = experiment: Annexin V apoptosis assay after transduction; format: cell-based
From the text: as §1, with “All animal procedures were performed according to protocols approved by the Animal Care and Use Committee of the Ospedale San Raffaele (IACUC 611) and according to Italian law.” left out, “All the transductions were performed at 1×10^6 cells/mL concentration. In the experiment with anti-retroviral inhibitors, the drugs were added together with the vector. Raltegravir and 3TC were used at 10 μM, and AZT at 25 μM. In the ATM inhibition experiment, single hit of the ATM inhibitor KU55933 (Selleck Chemicals) was added to the cells 2 hours before the transduction at 10 μM concentration. All cells were maintained in a 5% CO2 humidified atmosphere at 37° C.” left out
(§2) Human HSPC fluorescence associated cell sorting was performed as described in Petrillo et al. (Petrillo, C. et al. (2015) Molecular Therapy 23: 352-362). All cytometric analyses were performed using the FACS […] instrument and LSRFortessa instruments (BD Biosciences, San Jose, CA) and analysed with the FACS Express software (De Novo Software, Glendale, CA). GFP expression in transduced cells was measured 5-7 days post-transduction. […]

[4] = tested on: human CD45+ cells in the peripheral blood; experiment: Transplantation of transduced human HSPC in NSG mice (engraftment); conditions: transient inhibition during ex vivo transduction
[5] = tested on: Interferon stimulated genes (IRF7, OAS1, ISG15) in human CB-CD34+; experiment: Interferon stimulated gene mRNA induction; format: cell-based; conditions: RV MOI 100, 48 h, Raltegravir and KU55933 10 μM, AZT 25 μM
From the text: (§3) Human CD34+ hematopoietic stem and progenitor cells (HSPC) and CD4+ T cells were isolated through magnetic bead selection according to the manufacturer's instructions (Milteny) from umbilical cord blood (CB) collected upon informed consent from healthy volunteers according to the Institutional Ethical Committee approved protocol (TIGET01). Otherwise, CB and bone marrow (BM)-derived CD34+ were directly purchased from Lonza. Cells were purified and cultured as described in Petrillo et al. (Petrillo, C. et al. (2015) Molecular Therapy 23: 352-362). K562 and Hela cell lines were plated in complete Iscove's modified Dulbecco's medium (Euroclone). HL-60 cells were grown and transduced in complete RPMI. HCT-116 cells were grown and transduced in complete Dulbecco's Modified Eagle Medium (DMEM). Murine Lin− cells were isolated through magnetic bead selection according to the manufacturer's instructions (Miltenyi) from bone marrow of euthanised C57/BL6 mice. […] All cells were transduced at the indicated multiplicity of infection (MOI) as calculated by titration of vector stocks on 293T cells for Lentiviral and Retroviral vectors. Transductions with the AAV6 vectors were performed at an MOI of 10000 as calculated by titration of the vector preparation expressed in vector genome per mL (vg/mL). […]

mPB CD34+ cells = experiment: Two-hit transduction protocol in mPB CD34+ cells with clinical-grade LV (apoptosis, CFC, cell counts, p21); format: cell-based, human; conditions: two hits MOI 100 clinical-grade LV, 10 μM
From the text: as §3, with “(Euroclone).” for “(Euroclone). HL-60 cells were grown and transduced in complete RPMI. HCT-116 cells were grown and transduced in complete Dulbecco's Modified Eagle Medium (DMEM). Murine Lin− cells were isolated through magnetic bead selection according to the manufacturer's instructions (Miltenyi) from bone marrow of euthanised C57/BL6 mice.”
CFC assay cells were performed as described in Petrillo et al and Gentner et al. (Petrillo, C. et al. (2015) Molecular Therapy 23: 352-362; Gentner, B. et al. (2010) Science Translational Medicine 2: 58ra84). After ten days, colonies were identified as erythroid or myeloid by morphological criteria, counted, plucked and pooled into sets of three to obtain DNA for quantification of vector content. […]

[6] = DMSO, ethanol; cited from earlier work
human CB-CD34+ cells [7] = experiment: Transduction efficiency (GFP expression, integrated vector copy number); format: cell-based; conditions: LV MOI 100, 10 μM, 14 days
From the text: as §3, with “(Euroclone).” for “(Euroclone). HL-60 cells were grown and transduced in complete RPMI. HCT-116 cells were grown and transduced in complete Dulbecco's Modified Eagle Medium (DMEM). Murine Lin− cells were isolated through magnetic bead selection according to the manufacturer's instructions (Miltenyi) from bone marrow of euthanised C57/BL6 mice.”
as §2, with “CA).” for “CA). GFP expression in transduced cells was measured 5-7 days post-transduction.”

ATR [8] = molecular target: ATR (Homo sapiens, UniProt Q13535, F134E); conditions: cited from earlier work
ATM kinase = ATM kinase (Homo sapiens, UniProt Q13315); conditions: cited from earlier work
Sequence of ATM kinase (Q13315 whole entry): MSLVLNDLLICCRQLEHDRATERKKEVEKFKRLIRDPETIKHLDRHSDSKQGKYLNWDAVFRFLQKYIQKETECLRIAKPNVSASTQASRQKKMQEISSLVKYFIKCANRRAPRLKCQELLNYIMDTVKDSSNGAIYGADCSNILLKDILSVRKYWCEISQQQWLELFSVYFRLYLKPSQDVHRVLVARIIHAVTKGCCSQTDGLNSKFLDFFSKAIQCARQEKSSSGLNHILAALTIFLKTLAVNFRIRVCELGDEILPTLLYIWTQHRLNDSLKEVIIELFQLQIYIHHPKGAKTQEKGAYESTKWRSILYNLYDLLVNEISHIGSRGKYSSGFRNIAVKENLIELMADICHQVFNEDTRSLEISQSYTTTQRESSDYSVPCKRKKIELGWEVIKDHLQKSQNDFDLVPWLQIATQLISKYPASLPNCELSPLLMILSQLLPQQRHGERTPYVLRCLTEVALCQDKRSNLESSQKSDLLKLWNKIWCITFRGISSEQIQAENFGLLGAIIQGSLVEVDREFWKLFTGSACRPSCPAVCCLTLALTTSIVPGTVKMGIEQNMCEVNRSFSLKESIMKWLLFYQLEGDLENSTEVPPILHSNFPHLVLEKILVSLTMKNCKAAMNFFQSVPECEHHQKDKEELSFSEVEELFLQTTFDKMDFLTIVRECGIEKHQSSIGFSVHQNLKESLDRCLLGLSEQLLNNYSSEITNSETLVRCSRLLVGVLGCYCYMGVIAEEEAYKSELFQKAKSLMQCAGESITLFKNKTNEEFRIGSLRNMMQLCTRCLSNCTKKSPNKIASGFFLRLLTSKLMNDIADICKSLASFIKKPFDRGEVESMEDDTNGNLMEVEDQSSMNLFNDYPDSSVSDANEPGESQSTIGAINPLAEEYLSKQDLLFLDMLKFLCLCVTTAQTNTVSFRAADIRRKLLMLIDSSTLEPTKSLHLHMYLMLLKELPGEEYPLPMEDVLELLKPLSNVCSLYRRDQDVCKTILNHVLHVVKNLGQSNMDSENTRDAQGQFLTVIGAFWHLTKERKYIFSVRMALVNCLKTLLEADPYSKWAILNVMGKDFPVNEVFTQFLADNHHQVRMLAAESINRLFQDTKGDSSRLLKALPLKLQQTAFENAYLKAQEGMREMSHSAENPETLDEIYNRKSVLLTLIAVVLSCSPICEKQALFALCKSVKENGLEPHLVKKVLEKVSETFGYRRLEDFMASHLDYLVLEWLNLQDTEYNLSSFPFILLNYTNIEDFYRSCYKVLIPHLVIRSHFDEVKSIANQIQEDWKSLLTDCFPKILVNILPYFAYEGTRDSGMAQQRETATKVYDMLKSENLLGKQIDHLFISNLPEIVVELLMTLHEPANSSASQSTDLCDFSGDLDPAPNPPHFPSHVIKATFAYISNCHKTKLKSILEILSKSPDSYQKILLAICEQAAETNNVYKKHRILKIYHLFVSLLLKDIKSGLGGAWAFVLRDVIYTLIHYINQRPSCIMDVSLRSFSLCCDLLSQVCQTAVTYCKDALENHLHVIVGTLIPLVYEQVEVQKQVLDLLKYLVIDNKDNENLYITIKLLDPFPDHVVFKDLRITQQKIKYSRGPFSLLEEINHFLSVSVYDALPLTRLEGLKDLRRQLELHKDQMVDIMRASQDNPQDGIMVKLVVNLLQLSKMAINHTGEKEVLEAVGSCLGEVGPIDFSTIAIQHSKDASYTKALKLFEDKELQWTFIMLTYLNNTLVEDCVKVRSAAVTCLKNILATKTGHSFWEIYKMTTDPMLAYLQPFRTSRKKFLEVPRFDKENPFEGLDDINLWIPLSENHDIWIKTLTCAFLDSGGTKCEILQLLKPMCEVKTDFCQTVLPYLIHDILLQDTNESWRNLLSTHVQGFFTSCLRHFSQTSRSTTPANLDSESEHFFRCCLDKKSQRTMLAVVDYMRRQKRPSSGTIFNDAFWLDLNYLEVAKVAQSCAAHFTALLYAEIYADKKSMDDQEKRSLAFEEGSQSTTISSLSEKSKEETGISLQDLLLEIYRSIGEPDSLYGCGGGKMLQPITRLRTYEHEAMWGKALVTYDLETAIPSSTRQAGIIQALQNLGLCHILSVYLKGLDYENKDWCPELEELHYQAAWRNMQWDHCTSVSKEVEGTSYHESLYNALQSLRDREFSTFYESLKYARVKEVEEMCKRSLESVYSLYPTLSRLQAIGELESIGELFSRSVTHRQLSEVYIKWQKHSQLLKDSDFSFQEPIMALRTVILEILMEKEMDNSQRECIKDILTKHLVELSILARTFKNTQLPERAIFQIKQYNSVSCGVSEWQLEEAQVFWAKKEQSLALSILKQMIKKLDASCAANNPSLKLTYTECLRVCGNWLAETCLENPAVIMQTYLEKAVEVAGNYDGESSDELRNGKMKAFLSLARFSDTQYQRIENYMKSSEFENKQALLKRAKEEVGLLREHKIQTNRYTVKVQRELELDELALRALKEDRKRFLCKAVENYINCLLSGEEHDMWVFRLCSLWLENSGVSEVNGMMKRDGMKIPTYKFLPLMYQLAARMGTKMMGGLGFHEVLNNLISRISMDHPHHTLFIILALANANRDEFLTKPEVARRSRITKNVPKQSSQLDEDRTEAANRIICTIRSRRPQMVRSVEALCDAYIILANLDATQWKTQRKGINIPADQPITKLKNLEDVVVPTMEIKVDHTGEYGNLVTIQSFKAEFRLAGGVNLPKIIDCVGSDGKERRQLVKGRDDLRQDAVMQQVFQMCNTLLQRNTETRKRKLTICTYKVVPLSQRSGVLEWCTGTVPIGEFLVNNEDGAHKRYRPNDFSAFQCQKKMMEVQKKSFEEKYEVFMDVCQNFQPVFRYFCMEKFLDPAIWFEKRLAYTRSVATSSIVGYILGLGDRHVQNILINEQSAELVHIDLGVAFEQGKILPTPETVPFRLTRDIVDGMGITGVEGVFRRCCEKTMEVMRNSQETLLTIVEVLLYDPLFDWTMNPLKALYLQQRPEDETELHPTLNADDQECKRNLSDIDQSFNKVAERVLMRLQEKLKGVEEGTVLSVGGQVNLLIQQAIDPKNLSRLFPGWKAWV

[9] = CB-CD34+ exposed to AAV-6 MOI 10000, 10 μM

For `Cn1c(=O)n(-c2ccc(C(C)(C)C#N)cc2)c2c3cc(-c4cnc5ccccc5c4)ccc3ncc21` [BEZ235, Dactolisib], the IC50 (ATR [1]) is listed as roughly 21 nM.

With `O=c1cc(-c2cccc3c2Sc2ccccc2S3)oc(N2CCOCC2)c1` [KU-55933] the “AAV-6-induced p21 mRNA under ATM inhibition” value [2, 9] was “rescued”, the “LV-induced p21 mRNA in presence of the inhibitor” value [2] was “significantly reduced” and the “Proliferation delay of LV-transduced HSPC under ATM inhibition” value (human CB-CD34+ cells [3]) was “did not affect”. The “AAV-6-induced apoptosis under ATM inhibition” value (human CD34+ HSPC; [9]) was “rescued”, the “LV-induced apoptosis in presence of the inhibitor” value (human CD34+ HSPC; CB-CD34+, LV MOI 100, inhibitor 10 μM, 48 h) was “partially abrogated” and the “Improvement of LV-exposed HSPC engraftment” value [4] was “around 25%”. For the same molecule, the “γRV-mediated ISG induction in presence of the inhibitor” value [5] was “no impact”, the “Impact of ATM inhibition on apoptosis, colony output, cell counts in culture and p21 induction” value (mPB CD34+ cells) was “Positive impact” and the Solubility [6] was “soluble in DMSO and ethanol”.

In the case of `Cc1nnc(C(=O)NC(C)(C)c2nc(C(=O)NCc3ccc(F)cc3)c(O)c(=O)n2C)o1` [Raltegravir], the “LV-induced p21 mRNA in presence of the inhibitor” value [2] is reported as “still occurred”, the “γRV-mediated ISG induction in presence of the inhibitor” value [5] is reported as “occurred also” and the “LV integration (VCN) in presence of integrase inhibitor” value (human CB-CD34+ cells [7]) is reported as “efficient block”.

In the case of `COc1cc2ncnc(-n3nc(-c4ccccn4)nc3N)c2cc1OC` [CP-466722], the “Effect on ATR” value (ATR [8]) is given as “does not affect ATR” and the “ATM kinase inhibition” value (ATM kinase) is given as “potent and reversible ATM kinase inhibitor”.

For `O=C(NC(NC(=S)Nc1ccc(F)c([N+](=O)[O-])c1)C(Cl)(Cl)Cl)C(c1ccccc1)c1ccccc1` (centres unmarked) [CGK 733], the IC50 (ATR [8]) is listed as roughly 200 nM and the IC50 (ATM kinase) is listed as roughly 200 nM.

B1: GSE56: dominant negative form of p53 (SEQ ID NO: 6), over-expressed from a LV (protein, listed as Homo sapiens)
chain: CPGRDRRTEEENFRKKEEHCPELPPGSAKRALPTSTSSSPQQKKKPLDGEYFTLKIRGRERFEMFRELNEALELKDARAAEESGDSRAHSSYPK
In the case of B1, the “p21 induction upon a second round of LV or AAV6 transduction” value ([2]; GSE56-expressing CB-CD34+ vs control transduced) is reported as “completely prevented”, the “p53 signalling upon DNA damage by Captothecin (CPT)” value ([2]; GSE56-overexpressing HSPC) is reported as “efficiently block p53 signalling” and the “Apoptosis upon a second round of transduction” value (human CD34+ HSPC; GSE56-expressing HSPC, 48 h after second hit) is reported as “reduced apoptosis”.
